According to paper PMC4718592, “Identification of Novel HLA-A*24:02-Restricted Epitope Derived from a Homeobox Protein Expressed in Hematological Malignancies” (PLoS ONE, 2016):

Key:
PBMNCs from HD = experiment: PEPP2 expression after demethylating agent, healthy donor PBMNCs; format: cell-based, human; conditions: PBMCs from healthy donor, 200 nM for 72 hours
leukemia cells = experiment: Viability of leukemia cells after drug treatment; conditions: data not shown
PL21 cells [1] = experiment: 51Cr release cytotoxicity of PEPP2-specific CTLs against drug-pretreated PL21 cells; conditions: PL21 pretreated for 72 hours
Procedure: (§1) PL21 and HL60 cells and PBMNCs from HD were cultured in AIM-V medium (Life Technologies) supplemented with 10% human serum (Lonza, Walkersville, MD) in 6-well culture plates and 200 nM of 5-aza-2′-deoxycytidine (Sigma-Aldrich) was added every 24 hours for 72 hours.
(§2) The cytotoxic activity of the CTLs was measured using a standard ^51Cr release assay. Target cells were labeled with 50 μCi of ^51Cr (PerkinElmer Inc., Waltham, MA) for 60 min at 37°C. CIR-A24 cells were then incubated with 5 μg/mL of peptide for 1 hour. For the blocking assay, KMS21 cells were treated with mouse anti-HLA class I antibody (w6/32; eBioscience, San Diego, CA) or mouse IgG isotype antibody (eBioscience). The target cells were mixed with effector cells. After 4 hours, supernatants were transferred to LumaPlates (PerkinElmer) and allowed to air dry in a hood overnight. Plates were sealed and counted in MicroBeta® Trilux instrument (PerkinElmer). Percent specific lysis for ^51Cr release was calculated as [(experimental ^51Cr release—spontaneous ^51Cr release) / (maximum ^51Cr release—spontaneous ^51Cr release)] x 100.

[2] = tested on: PBMNCs from HLA-A*24:02-positive healthy donor; conditions: PBMNCs pretreated for 72 hours, 51Cr release
Procedure: as §1, §2

PL21 cells [3] = conditions: flow cytometry
HL60 and PL21 cells = experiment: PEPP2 expression after demethylating agent, leukemia cell lines (RT-PCR, quantitative PCR, immunohistochemistry); format: cell-based
HLA-A24 [4] = experiment: Peptide stability assay on CIR-A24 cells (brefeldin A); format: binding; conditions: 50 μg/mL peptide + 5 μg/mL β2-microglobulin, 24 hours, then 50 μg/mL brefeldin A for 4 hours, FITC anti-HLA-A24 staining, MFI with peptide / MFI without peptide, average of the two assays
Procedure: (§3) We assessed the binding ability of candidate peptides to HLA-A24 as described previously. CIR-A24 cells were incubated with 50 μg/mL peptides and 5μg/ mL of β2-microglobulin in serum-free media for 24 hours. After washing with PBS, the expression of HLA-A24 was measured by staining the cells with FITC-conjugated anti-HLA-A24 antibody (Mitsubishi-Kagaku, Tokyo, Japan). We also checked the stability of candidate peptides bound to the HLA-A24 molecule. CIR-A24 cells were incubated with 50 μg/mL peptides and 5 μg/mL of β2-microglobulin in serum-free media for 24 hours, followed by addition of 50 μg/ mL of brefeldin A (Sigma-Aldrich) for 4 hours. The expression of HLA-A24 was detected by staining the cells with FITC-conjugated anti-HLA-A24 antibody (Mitsubishi). MFI (mean fluorescence intensity) ratio was calculated as follows; MFI of CIR-A24 pulsed with each candidate peptide / MFI of CIR-A24 without peptide.

[5] = tested on: HLA-A*24:02 positive lymphocytes isolated from healthy donors; experiment: Induction of PEPP2 peptide-specific CTLs from PBMCs of healthy donors; format: cell-based, human; conditions: HLA-A*24:02 positive healthy donor lymphocytes stimulated with peptide-pulsed DC and PHA blasts; IFN-γ ELISpot
Procedure: CTLs were generated by in vitro stimulation with peptide-pulsed autologous dendritic cells and phytohemagglutinin (PHA) blasts. Briefly, PBMNCs were isolated from whole blood of HLA-A*24:02-positive HD by Ficoll density gradient centrifugation. Dendritic cells (DC) were generated by isolating CD14^+ cells using a MACS separation system (Miltenyi Biotec, Bergisch Gladbach, Germany). The CD14^+ cells were cultured in AIM-V medium supplemented with 10% human serum, 100 ng/mL of IL-4 (R&D Systems) and 100 ng/mL of GM-CSF (R&D Systems) for 5 days, then 20 ng/mL of TNF-α (R&D Systems) was added to generate DC. PHA blasts were derived from CD14^- cells by culturing in AIM-V medium supplemented with 10% human serum, 100 units of IL-2 and 1μ g/mL of PHA for 2 days. The DC or PHA blasts were pulsed with 50μg/L of peptide at room temperature for 3 hours and then irradiated (mediXtec, Chiba, Japan). On day 0, CD14^- cells were stimulated with irradiated peptide-pulsed DC in AIM-V medium with 10% human serum supplemented with 10 ng/mL of IL-7 (R&D Systems), then 50 ng/mL of IL-2 was added every 2 to 3 days. The cells were stimulated weekly with irradiated peptide-pulsed autologous PHA blasts, then CD3^+CD8^+ cells were purified with immunomagnetic beads (Miltenyi Biotec).
IFN-γ secretion of CTLs in response to target cells was detected using ELISpot assay. Briefly, effector cells were incubated with target cells in plates coated with anti-IFNγ antibody (1-D1K; Mabtech Inc., Cincinnati, OH). After incubation for 20 hours, biotinylated antibody specific for IFN γ (7-B6-1; Mabtech) was added for 2 hours at room temperature and then streptavidin-alkaline phosphatase (Mabtech) was added for 1 hour. To develop spots, nitroblue tetrazolium and 5-bromo-4-chloro-3-indolyl phosphate (Biorad) were added and the color development was stopped by rinsing with distilled water. The resulting spots were counted using a CTL-ImmunoSpot® analyzer (Cellular Technology Ltd., Shaker Heights, OH)

HLA-A24 [6] = experiment: Peptide binding assay on CIR-A24 cells; conditions: 50 μg/mL peptide + 5 μg/mL β2-microglobulin, serum-free media, 24 hours, FITC anti-HLA-A24 staining, MFI with peptide / MFI without peptide, average of the two assays
Procedure: as §3

CIR-A24 cells = experiment: 51Cr release cytotoxicity assay of PEPP2-specific CTLs against peptide-pulsed cells; format: cell-based
Excerpt: The target cells were mixed with effector cells.

Row | Molecule | Stability MFI ratio (HLA-A24 [4]) | Binding MFI ratio (HLA-A24 [6]) | also measured
1 | Nc1ncn([C@H]2C[C@H](O)[C@@H](CO)O2)c(=O)n1 [5-aza-2′-deoxycytidine] | – | – | PEPP2 gene and protein expression after treatment (PBMNCs from HD): did not change; Viability of leukemia cells after treatment with the drug (leukemia cells): more than 90%; Cytotoxicity of PEPP2-specific CTLs against treated cells compared with non-treated cells (PL21 cells [1]): enhanced cytotoxicity; Recognition of treated normal PBMNCs by PEPP2-specific CTLs [2]: didn’t recognize; HLA-class I expression after treatment (PL21 cells [3]): up-regulated; PD-L1 expression level after treatment (PL21 cells [3]; confirmed by quantitative PCR): slightly up-regulated; PEPP2 gene expression after treatment (HL60 and PL21 cells; HL60 and PL21, 200 nM for 72 hours, RT-PCR / quantitative PCR): significantly up-regulated; PEPP2 protein expression after treatment (HL60 and PL21 cells; treated vs untreated cells, 200 nM for 72 hours, immunohistochemistry): increased
2 | AFTPIQLQEL [PEPP2^140-149] | 0.851 | 1.363 | Induction of PEPP2-specific CTL [5]: could not induce PEPP2-specific CTL
3 | CSQYMTSSL [PEPP2^7-15] | 1.041 | 1.103 | –
4 | DMNAMVSL [PEPP2^27-35] | 0.831 | 0.936 | –
5 | DYFWDHSHS [PEPP2^231-239] | 0.869 | 0.889 | –
6 | EFGPFPFVI [PEPP2^271-279] | 1.201 | 1.153 | Induction of PEPP2-specific CTL [5]: could induce PEPP2-specific CTL; Lysis of peptide-pulsed C1R-A24 cells by PEPP2-specific CTLs (CIR-A24 cells; 4 hours, targets pulsed with 5 μg/mL peptide): could lyse C1R-A24 cells only when the target cells were pulsed; Dose dependence of recognition by CTLs (CIR-A24 cells; CIR-A24 pulsed with various concentrations of peptide, E/T ratio of 30): peptide dose-dependent
7 | ERIFQREQF [PEPP2^150-158] | 0.690 | 0.747 | –
8 | FTPLQLQEL [PEPP2^141-149] | 0.687 | 0.860 | –
9 | FVIVPSFTF [PEPP2^277-285] | 0.928 | 1.181 | –
10 | GGAGVPGHL [PEPP2^81-89] | 0.785 | 0.852 | –
11 | KWRRHQRAL [PEPP2^188-196, PEPP2-derived candidate peptide …] | 0.714 | 0.772 | –
12 | LQDMNAMVL [PEPP2^25-33] | 0.761 | 0.768 | –
13 | LQLQELERI [PEPP2^144-152] | 0.738 | 0.695 | –
14 | MPPFPPPSL [PEPP2^246-254] | 0.914 | 0.985 | –
15 | PFPPPSLPL [PEPP2^248-256] | 0.926 | 1.069 | –
16 | QCSQYMTSL [PEPP2^6-14] | 0.614 | 0.724 | –
17 | QGTAAGEKL [PEPP2^52-60] | 0.938 | 0.820 | –
18 | QLQELERIF [PEPP2^145-153] | 1.071 | 0.767 | –
19 | QYMTSLLSPA [PEPP2^9-18] | 0.865 | 1.354 | –
20 | QYSRPQGAV [PEPP2^117-125] | 0.977 | 0.882 | –
21 | RALMARNML [PEPP2^194-202] | 0.599 | 0.954 | –
22 | RPQGAVGGL [PEPP2^120-128] | 0.754 | 0.746 | –
23 | SLPLPLMLL [PEPP2^253-261] | 1.103 | 1.277 | Induction of PEPP2-specific CTL [5]: could not induce PEPP2-specific CTL
24 | TYGPVFMCL [EBV, reference compound] | 1.320 | 1.204 | –
25 | VHAFTPLQL [PEPP2^138-146] | 0.748 | 0.992 | –
